Experimental findings from ChEMBL document CHEMBL5724914, “Linking interpersonal differences in gut microbiota composition and drug biotransformation activity” (2024) are described below.

A short description of data set [1]: The drug is tested on Z-028 corresponding to mouse gut metagenome with ENA study accession number: PRJEB37062 and ENA sample accession number: ERS12561827 for biotransformation under anaerobic condition. The drug concentrations were measured over 9 timepoints collected between 0 and 24 hours of incubation by liquid-chromatography-coupled mass spectrometry (LC–MS). The conditions noted are these: 2 µM.

The nature of data set [2]: The drug is tested on Z-026 corresponding to metagenome with ENA study accession number: PRJEB37062 and ENA sample accession number: ERS12561825 for biotransformation under anaerobic condition. The drug concentrations were measured over 9 timepoints collected between 0 and 24 hours of incubation by liquid-chromatography-coupled mass spectrometry (LC–MS). The conditions noted are these: 2 µM.

Data set [3] in a line: The drug is tested on Z-017 corresponding to mouse gut metagenome with ENA study accession number: PRJEB37062 and ENA sample accession number: ERS12561816 for biotransformation under anaerobic condition. The drug concentrations were measured over 9 timepoints collected between 0 and 24 hours of incubation by liquid-chromatography-coupled mass spectrometry (LC–MS). The conditions noted are these: 2 µM.

The nature of data set [4]: The drug is tested on Z-012 corresponding to metagenome with ENA study accession number: PRJEB37062 and ENA sample accession number: ERS12561812 for biotransformation under anaerobic condition. The drug concentrations were measured over 9 timepoints collected between 0 and 24 hours of incubation by liquid-chromatography-coupled mass spectrometry (LC–MS). The conditions noted are these: 2 µM.

Data set [5] in a line: The drug is tested on Z-006 corresponding to mouse gut metagenome with ENA study accession number: PRJEB37062 and ENA sample accession number: ERS12561806 for biotransformation under anaerobic condition. The drug concentrations were measured over 9 timepoints collected between 0 and 24 hours of incubation by liquid-chromatography-coupled mass spectrometry (LC–MS). The conditions noted are these: 2 µM.

Data set [6] is described as follows: The drug is tested on Z-003 corresponding to pig gut metagenome with ENA study accession number: PRJEB37062 and ENA sample accession number: ERS12561803 for biotransformation under anaerobic condition. The drug concentrations were measured over 9 timepoints collected between 0 and 24 hours of incubation by liquid-chromatography-coupled mass spectrometry (LC–MS). The conditions noted are these: 2 µM.

The nature of data set [7]: The drug is tested on WLS-310 corresponding to human gut metagenome with ENA study accession number: PRJEB37062 and ENA sample accession number: ERS12561785 for biotransformation under anaerobic condition. The drug concentrations were measured over 9 timepoints collected between 0 and 24 hours of incubation by liquid-chromatography-coupled mass spectrometry (LC–MS). The conditions noted are these: 2 µM.

A short description of data set [8]: The drug is tested on WLS-240 corresponding to human gut metagenome with ENA study accession number: PRJEB37062 and ENA sample accession number: ERS12561773 for biotransformation under anaerobic condition. The drug concentrations were measured over 9 timepoints collected between 0 and 24 hours of incubation by liquid-chromatography-coupled mass spectrometry (LC–MS). The conditions noted are these: 2 µM.

The conditions of data set [9]: human gut metagenome, 24 h, 2 µM.
For data set [10] the following is noted: human gut metagenome, 24 h, 2 µM. The source holds these as a separate data set.
The conditions of data set [11]: human gut metagenome, 24 h, 2 µM. The source holds these as a separate data set.
The conditions of data set [12]: human gut metagenome, 24 h, 2 µM. This is another data set of the same source.
For data set [13] the following is noted: human gut metagenome, 24 h, 2 µM. This is another data set of the same source.
For data set [14] the following is noted: human gut metagenome, 24 h, 2 µM. This is another data set of the same source.
For data set [15] the following is noted: human gut metagenome, 24 h, 2 µM. This is another data set of the same source.
For data set [16] the following is noted: human gut metagenome, 24 h, 2 µM. The source holds these as a separate data set.
For data set [17] the following is noted: human gut metagenome, 24 h, 2 µM. The source holds these as a separate data set.
For data set [18] the following is noted: human gut metagenome, 24 h, 2 µM. The source holds these as a separate data set.
The conditions of data set [19]: human gut metagenome, 24 h, 2 µM. This is another data set of the same source.
For data set [20] the following is noted: human gut metagenome, 24 h, 2 µM. This is another data set of the same source.
Also: call rule not given here.

Take `COC1=CC(=O)C[C@@H](C)[C@]12Oc1c(Cl)c(OC)cc(OC)c1C2=O` [GRISEOFULVIN]: the “Bacterial Biotransformation” value in data set [1], in data set [2], in data set [3], in data set [4], in data set [5] and in [6] was “Compound metabolized” each time. Also, the “Bacterial Biotransformation” value is on record as “Compound metabolized” in [7]; “Compound metabolized” in data set [8]; “Compound NOT metabolized” in [9]; “Compound NOT metabolized” in data set [10]; “Compound metabolized” in [11]; “Compound metabolized” in data set [12]. In addition, the “Bacterial Biotransformation” value in [13], in data set [14], in data set [15], in data set [16], in [17] and in [18] was “Compound metabolized” in each case. Besides, the “Bacterial Biotransformation” value in data set [19] is “Compound NOT metabolized”; in [20], “Compound metabolized”.
As to `N#Cc1ccc(C(c2ccc(C#N)cc2)n2cncn2)cc1` [LETROZOLE], the “Bacterial Biotransformation” value is “Compound NOT metabolized” in [1]; “Compound metabolized” in data set [2]; “Compound NOT metabolized” in data set [3]; “Compound NOT metabolized” in data set [4]; “Compound NOT metabolized” in [5]; “Compound NOT metabolized” in data set [6]. Further, the “Bacterial Biotransformation” value in [7], in data set [8], in data set [9], in data set [10], in data set [11] and in data set [12] was “Compound NOT metabolized” each time. For the same molecule, the “Bacterial Biotransformation” value in data set [13], in data set [14], in data set [15], in data set [16], in data set [17] and in [18] was “Compound NOT metabolized” in each case. In addition, the “Bacterial Biotransformation” value in data set [19] and in data set [20] was “Compound NOT metabolized” in each case.
In the case of `CC(Oc1c(Cl)cccc1Cl)C1=NCCN1` (stereo not given) [LOFEXIDINE], the “Bacterial Biotransformation” value in [1], in data set [2], in data set [3], in [4], in [5] and in data set [6] was “Compound NOT metabolized” each time. For the same molecule, the “Bacterial Biotransformation” value in data set [7] was “Compound metabolized”; in data set [8], “Compound metabolized”; in data set [9] it was “Compound NOT metabolized”; in data set [10] it was “Compound NOT metabolized”; in data set [11], “Compound NOT metabolized”; in [12], “Compound NOT metabolized”. The “Bacterial Biotransformation” value was “Compound NOT metabolized” in [13]; “Compound metabolized” in [14]; “Compound metabolized” in [15]; “Compound NOT metabolized” in data set [16]; “Compound metabolized” in data set [17]; “Compound NOT metabolized” in data set [18]. Also, the “Bacterial Biotransformation” value in data set [19] was “Compound NOT metabolized”; in data set [20], “Compound metabolized”.
On to `CN(C)C(=O)C(CCN1CCC(O)(c2ccc(Cl)cc2)CC1)(c1ccccc1)c1ccccc1` [LOPERAMIDE], for which the “Bacterial Biotransformation” value in data set [1] is “Compound metabolized”; in data set [2], “Compound NOT metabolized”; in [3] it was “Compound NOT metabolized”; in [4], “Compound metabolized”; in data set [5], “Compound metabolized”; in data set [6], “Compound metabolized”. For the same molecule, the “Bacterial Biotransformation” value in [7], in [8], in data set [9], in data set [10], in data set [11] and in data set [12] was “Compound metabolized” throughout. Besides, the “Bacterial Biotransformation” value in data set [13], in data set [14], in [15], in [16], in data set [17] and in data set [18] was “Compound metabolized” each time. The “Bacterial Biotransformation” value in data set [19] and in data set [20] was “Compound metabolized” in each case.
As for `CCCCc1nc(Cl)c(CO)n1Cc1ccc(-c2ccccc2-c2nn[nH]n2)cc1` [LOSARTAN], the “Bacterial Biotransformation” value in [1], in [2], in data set [3], in data set [4], in [5] and in data set [6] was “Compound NOT metabolized” in each case. The “Bacterial Biotransformation” value in data set [7], in data set [8], in [9], in data set [10], in data set [11] and in [12] was “Compound metabolized” in each case. The “Bacterial Biotransformation” value in data set [13] is “Compound NOT metabolized”; in data set [14], “Compound metabolized”; in data set [15] it was “Compound metabolized”; in data set [16], “Compound metabolized”; in data set [17], “Compound metabolized”; in data set [18], “Compound metabolized”. Further, the “Bacterial Biotransformation” value in data set [19] and in data set [20] was “Compound metabolized” throughout.
As for `COC(=O)Nc1nc2ccc(C(=O)c3ccccc3)cc2[nH]1` [MEBENDAZOLE], the “Bacterial Biotransformation” value in data set [1] is listed as “Compound NOT metabolized”; in [2], “Compound NOT metabolized”; in data set [3], “Compound NOT metabolized”; in data set [4], “Compound metabolized”; in [5] it was “Compound metabolized”; in data set [6], “Compound metabolized”. Besides, the “Bacterial Biotransformation” value in [7], in data set [8], in data set [9], in data set [10], in data set [11] and in data set [12] was “Compound metabolized” in each case. In addition, the “Bacterial Biotransformation” value in data set [13], in data set [14], in data set [15], in data set [16], in [17] and in [18] was “Compound metabolized” throughout. Moreover, the “Bacterial Biotransformation” value in data set [19] and in data set [20] was “Compound metabolized” throughout.
